In BindingDB's records for doi:10.1016/j.bmcl.2011.02.072 (Bharati Vidyapeeth Deemed University, 2011):

Target: T1, Amine oxidase [flavin-containing] A (Homo sapiens, UniProt P21397)
T1 sequence (P21397 whole entry): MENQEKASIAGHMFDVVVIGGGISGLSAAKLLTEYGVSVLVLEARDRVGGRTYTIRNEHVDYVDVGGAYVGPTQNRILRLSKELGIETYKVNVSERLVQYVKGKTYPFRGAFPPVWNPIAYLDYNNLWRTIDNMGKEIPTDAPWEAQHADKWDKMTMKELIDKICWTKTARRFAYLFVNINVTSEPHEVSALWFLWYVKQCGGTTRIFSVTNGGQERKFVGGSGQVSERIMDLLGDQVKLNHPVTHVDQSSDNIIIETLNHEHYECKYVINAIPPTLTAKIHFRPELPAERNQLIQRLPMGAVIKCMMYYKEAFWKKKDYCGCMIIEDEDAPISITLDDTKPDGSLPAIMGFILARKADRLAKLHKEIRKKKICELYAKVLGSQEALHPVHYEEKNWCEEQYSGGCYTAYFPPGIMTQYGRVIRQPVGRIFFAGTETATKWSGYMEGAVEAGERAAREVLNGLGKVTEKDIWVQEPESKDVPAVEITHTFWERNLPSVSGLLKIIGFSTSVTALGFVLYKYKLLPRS
Test: […]

| Ki [nM] | Structure (SMILES) |
| --- | --- |
| 9.51 | Cn1cccc1C(=O)[C@H](c1ccccc1)N1CCCC1 [1-(1-Methyl-1H-pyrrol-2-yl)-2-phenyl-2-pyrrolidin-1-yl-ethanone (+)-S] |
| 3.5 | Cn1cccc1C(=O)[C@@H](c1ccccc1)N1CCCC1 [1-(1-Methyl-1H-pyrrol-2-yl)-2-phenyl-2-pyrrolidin-1-yl-ethanone (-)-R] |
